± gives the expanded uncertainty stated by the source.
Assay: xn = mol fraction of the nth substance listed
Conditions: 100 kPa, Liquid; for speed of sound: Frequency=3 MHz, Sing-around technique in a fixed-path interferometer; for mass density: Vibrating tube method

CCn1cc[n+](C)c1.F[B-](F)(F)F [1-ethyl-3-methylimidazolium tetrafluoroborate] + CCCCn1cc[n+](C)c1.F[B-](F)(F)F
Conditions | mass density, 293.15 K [kg/m3] | mass density, 298.15 K [kg/m3] | mass density, 303.15 K [kg/m3] | mass density, 308.15 K [kg/m3] | speed of sound, 293.15 K [m/s] | speed of sound, 298.15 K [m/s] | speed of sound, 303.15 K [m/s] | speed of sound, 308.15 K [m/s]
x2 = 0 | 1283.9 ± 2 | 1279.9 ± 2 | 1276.3 ± 2 | 1272.1 ± 2 | 1631.1 ± 1.6 | 1619.2 ± 1.6 | 1607.4 ± 1.6 | 1596.2 ± 1.6
x2 = 0.0728 | 1274.4 ± 2 | 1270.8 ± 2 | 1267.5 ± 2 | 1263.8 ± 2 | 1628.1 ± 1.6 | 1616 ± 1.6 | 1604 ± 1.6 | 1592.6 ± 1.6
x2 = 0.1143 | 1269.1 ± 2 | 1265.7 ± 2 | 1262.6 ± 2 | 1259.1 ± 2 | 1626.4 ± 1.6 | 1614.2 ± 1.6 | 1602.2 ± 1.6 | 1590.6 ± 1.6
x2 = 0.148 | 1264.9 ± 2 | 1261.6 ± 2 | 1258.7 ± 2 | 1255.3 ± 2 | 1625 ± 1.6 | 1612.7 ± 1.6 | 1600.7 ± 1.6 | 1589.1 ± 1.6
x2 = 0.1737 | 1261.8 ± 2 | 1258.6 ± 2 | 1255.7 ± 2 | 1252.4 ± 2 | 1624 ± 1.6 | 1611.6 ± 1.6 | 1599.5 ± 1.6 | 1587.9 ± 1.6
x2 = 0.2204 | 1256.4 ± 2 | 1253.2 ± 2 | 1250.5 ± 2 | 1247.4 ± 2 | 1622 ± 1.6 | 1609.6 ± 1.6 | 1597.5 ± 1.6 | 1585.7 ± 1.6
x2 = 0.2684 | 1251.1 ± 2 | 1248 ± 2 | 1245.3 ± 2 | 1242.3 ± 2 | 1620 ± 1.6 | 1607.5 ± 1.6 | 1595.3 ± 1.6 | 1583.5 ± 1.6
x2 = 0.3155 | 1246.2 ± 2 | 1243.1 ± 2 | 1240.5 ± 2 | 1237.6 ± 2 | 1618 ± 1.6 | 1605.4 ± 1.6 | 1593.3 ± 1.6 | 1581.3 ± 1.6
x2 = 0.3619 | 1241.6 ± 2 | 1238.6 ± 2 | 1236 ± 2 | 1233.2 ± 2 | 1616 ± 1.6 | 1603.3 ± 1.6 | 1591.2 ± 1.6 | 1579.1 ± 1.6
x2 = 0.4167 | 1236.6 ± 2 | 1233.6 ± 2 | 1231.1 ± 2 | 1228.3 ± 2 | 1613.6 ± 1.6 | 1600.8 ± 1.6 | 1588.7 ± 1.6 | 1576.6 ± 1.6
x2 = 0.4759 | 1231.8 ± 2 | 1228.7 ± 2 | 1226.1 ± 2 | 1223.4 ± 2 | 1610.8 ± 1.6 | 1598 ± 1.6 | 1585.9 ± 1.6 | 1573.7 ± 1.6
x2 = 0.5282 | 1227.9 ± 2 | 1224.7 ± 2 | 1222.2 ± 2 | 1219.4 ± 2 | 1608.3 ± 1.7 | 1595.5 ± 1.7 | 1583.3 ± 1.6 | 1571.1 ± 1.6
x2 = 0.5742 | 1224.7 ± 2 | 1221.5 ± 2 | 1218.9 ± 2 | 1216.1 ± 2 | 1605.9 ± 1.7 | 1593.1 ± 1.7 | 1581 ± 1.7 | 1568.8 ± 1.7
x2 = 0.6356 | 1220.9 ± 2.1 | 1217.6 ± 2.1 | 1214.9 ± 2 | 1212.1 ± 2 | 1602.7 ± 1.7 | 1589.8 ± 1.7 | 1577.7 ± 1.7 | 1565.6 ± 1.7
x2 = 0.6835 | 1218.1 ± 2.1 | 1214.8 ± 2.1 | 1212.1 ± 2.1 | 1209.1 ± 2 | 1600 ± 1.7 | 1587.1 ± 1.7 | 1575.1 ± 1.7 | 1563 ± 1.7
x2 = 0.7381 | 1215.3 ± 2.1 | 1211.8 ± 2.1 | 1209 ± 2.1 | 1206 ± 2.1 | 1596.7 ± 1.7 | 1583.9 ± 1.7 | 1572 ± 1.7 | 1559.8 ± 1.7
x2 = 0.7892 | 1212.8 ± 2.1 | 1209.2 ± 2.1 | 1206.3 ± 2.1 | 1203.2 ± 2.1 | 1593.5 ± 1.7 | 1580.7 ± 1.7 | 1568.8 ± 1.7 | 1556.8 ± 1.7
x2 = 0.8364 | 1210.6 ± 2.1 | 1206.9 ± 2.1 | 1203.9 ± 2.1 | 1200.6 ± 2.1 | 1590.4 ± 1.7 | 1577.6 ± 1.7 | 1565.8 ± 1.7 | 1553.8 ± 1.7
x2 = 0.8932 | 1208 ± 2.1 | 1204.2 ± 2.1 | 1201 ± 2.1 | 1197.6 ± 2.1 | 1586.4 ± 1.7 | 1573.7 ± 1.7 | 1562 ± 1.7 | 1550 ± 1.7

From the NIST ThermoML archive (doi:10.1016/j.jct.2016.08.010)
